Legend:
[1] = tested on: bacterial collagenase; details: gel exposed to bacterial collagenase plus 10 mM EDTA, EDTA then neutralized with Ca2+; FIG. 8B
Method: (§1) Collagen-degrading enzyme preparations. A collagenolytic enzyme preparation from Clostridium histolyticum (Collagenase type I; Worthington Biochemical Corp, Freehold, N.J.) was used to produce fragmentation of the collagen. […] The bacterial enzyme preparation cleaves intact collagen at numerous sites to produce low molecular weight fragments. Collagenolytic activity was quantified by exposing 1 mg of rat tail (monomeric) collagen to varying concentrations of enzyme preparation for 5 hours at 37° C. Intact collagen exposed to buffer alone served as control. At the end of the incubation period, the control collagen and enzyme-treated collagen were resolved on SDS-PAGE and stained with Coomassie brilliant blue. Laser densitometry was used to quantify α1(I) and α2(I) bands in the intact and digested preparations. […] Human basal cell carcinoma tissue was used as a source of collagen-degrading enzymes from human skin. Fresh tumor specimens obtained at surgery were cut into 2-mm pieces, and 6-8 tissue pieces incubated for 72 hours in 0.5 ml of Ca^2+-supplemented MCDB-153. Incubation was at 37° C. and 5% CO2. At the end of the incubation period, the culture fluid was obtained and used as the enzyme source.

[2] = tested on: collagen-degrading enzymes from human skin (basal cell carcinoma conditioned medium)
Method: as §1

[3] = tested on: collagenolytic enzyme preparation from Clostridium histolyticum (Collagenase type I)
Method: as §1

[4] = biological target: MMP-9 (Homo sapiens, UniProt P14780); details: from Whittaker et al., Chem. Rev. 1999; cited from earlier work
Sequence of MMP-9 (P14780 94-707): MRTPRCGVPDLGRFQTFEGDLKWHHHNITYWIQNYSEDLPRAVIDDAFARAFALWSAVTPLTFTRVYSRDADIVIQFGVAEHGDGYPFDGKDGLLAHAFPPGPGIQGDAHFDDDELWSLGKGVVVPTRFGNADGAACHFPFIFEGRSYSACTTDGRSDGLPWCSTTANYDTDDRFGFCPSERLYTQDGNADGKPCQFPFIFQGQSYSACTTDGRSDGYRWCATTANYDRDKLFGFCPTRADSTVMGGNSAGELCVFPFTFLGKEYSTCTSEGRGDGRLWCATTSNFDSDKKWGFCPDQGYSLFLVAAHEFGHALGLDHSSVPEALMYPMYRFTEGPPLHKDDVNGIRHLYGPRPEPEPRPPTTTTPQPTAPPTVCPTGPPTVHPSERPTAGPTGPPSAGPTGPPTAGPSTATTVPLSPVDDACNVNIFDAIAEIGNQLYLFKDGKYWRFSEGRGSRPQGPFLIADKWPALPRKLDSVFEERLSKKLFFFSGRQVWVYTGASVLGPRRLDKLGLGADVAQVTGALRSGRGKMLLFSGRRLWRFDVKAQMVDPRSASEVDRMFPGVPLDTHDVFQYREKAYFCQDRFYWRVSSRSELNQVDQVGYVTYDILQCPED

[5] = biological target: T1, MMP-2 (Homo sapiens, UniProt P08253); details: from Whittaker et al., Chem. Rev. 1999; cited from earlier work
T1 sequence (P08253 110-660): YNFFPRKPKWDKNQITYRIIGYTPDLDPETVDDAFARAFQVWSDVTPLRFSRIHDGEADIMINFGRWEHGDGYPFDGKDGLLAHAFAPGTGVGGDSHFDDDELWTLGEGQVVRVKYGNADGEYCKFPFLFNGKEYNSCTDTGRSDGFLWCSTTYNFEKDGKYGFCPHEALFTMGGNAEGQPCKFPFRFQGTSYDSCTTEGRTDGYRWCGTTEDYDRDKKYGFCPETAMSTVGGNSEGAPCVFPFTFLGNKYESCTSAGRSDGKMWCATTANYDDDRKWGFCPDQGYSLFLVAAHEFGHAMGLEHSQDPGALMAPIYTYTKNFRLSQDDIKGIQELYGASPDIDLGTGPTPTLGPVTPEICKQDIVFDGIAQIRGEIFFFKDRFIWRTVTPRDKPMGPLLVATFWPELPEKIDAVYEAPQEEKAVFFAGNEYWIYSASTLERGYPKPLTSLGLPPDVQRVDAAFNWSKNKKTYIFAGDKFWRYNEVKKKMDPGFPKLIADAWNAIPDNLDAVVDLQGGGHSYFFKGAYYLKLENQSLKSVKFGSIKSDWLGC

[6] = tested on: human skin collagenase; test: Fibroblast contraction of collagen gels treated with human skin collagenase; assay type: cell-based; details: gels treated with human skin collagenase in the presence of 10 μg of aprotinin; FIG. 8B
Method: Preparation of polymerized collagen gels. […] During this period, the collagen formed a polymerized gel.
Collagen-degrading enzyme preparations. […] Intact collagen exposed to buffer alone served as control. […] Incubation was at 37° C. and 5% CO2.

O=C(O)CN(CCN(CC(=O)O)CC(=O)O)CC(=O)O [EDTA, ethylene diamine tetraacetic acid]
collagen contraction [1]: no collagen contraction
zymographic activities ([2]; 10 mM EDTA in the incubation buffer, gelatin, collagen and β-casein): suppressed zymographic activities
collagen-degradation ([2]; 10 mM EDTA in the reaction mixture): suppressed collagen-degradation
reactivity in zymography ([3]; 10 mM EDTA included in the overnight incubation buffer, gelatin and monomeric collagen): Reactivity was lost
collagen breakdown ([3]; 10 mM EDTA included in the reaction mixture, 1 mg rat tail monomeric collagen, 5 hours at 37° C.): no detectable collagen breakdown

CN1C(=O)N(C[C@H](C(=O)NO)[C@@H](CC2CCCC2)C(=O)N2CCCCC2)C(=O)C1(C)C [compound 52]
IC50 [4]: 59 nM
IC50 [5]: 154 nM

aprotinin
collagen contraction [6]: not
